Columns and labels:
MDA-MB-435 = test: Antiproliferative activity against human MDA-MB-435 cells after 48 hrs by sulforhodamine B assay; type: functional; details: MDA-MB-435, 48 h
HCT-116 = test: Antiproliferative activity against human HCT116 cells after 48 hrs by sulforhodamine B assay; type: functional; details: HCT-116, 48 h
MCF7 = test: Antiproliferative activity against human MCF7 cells after 48 hrs by sulforhodamine B assay; type: functional; details: MCF7, 48 h
NCI-H460 = test: Antiproliferative activity against human NCI-H460 cells after 48 hrs by sulforhodamine B assay; type: functional; details: NCI-H460, 48 h
OVCAR-5 = test: Antiproliferative activity against human OVCAR5 cells after 48 hrs by sulforhodamine B assay; type: functional; details: OVCAR-5, 48 h
[1] = biological target: Histone deacetylase (Homo sapiens) (UniProt Q13547+O15379+Q9UBN7+Q92769+Q9UQL6+Q8WUI4+Q9BY41+Q96DB2+P56524+Q9UKV0+Q969S8); details: HeLa, at 1 µM
Description: Inhibition of HDAC in human HeLa cell nuclear extracts using Fluor de Lys as substrate at 1 uM by fluorescence assay

Histone deacetylase = test: Inhibition of HDAC in human HeLa cell nuclear extracts using Fluor de Lys as substrate by fluorescence assay; type: protein assay

SMILES | GI50 (MDA-MB-435) [nM] | GI50 (HCT-116) [nM] | GI50 (MCF7) [nM] | GI50 (NCI-H460) [nM] | GI50 (OVCAR-5) [nM] | inhibition [1] [%] | IC50 (Histone deacetylase) [nM]
O=C(CCCCCCC(=O)Nc1ccccc1)NO [VORINOSTAT] | 880 | 940 | 450 | – | – | – | –
CCCCNC(=S)Nc1cc(/C=C/C(=O)NO)ccc1OCCN(CC)CC | 510 | 350 | 220 | 480 | 1120 | 88 | 130
CCCCCCCNC(=O)Nc1cc(/C=C/C(=O)NO)ccc1SCCN(CC)CC | – | – | – | – | – | 48.7 | –
CCCCc1nc2cc(/C=C/C(=O)NO)ccc2n1CCN(CC)CC [PRACINOSTAT] | 480 | 240 | 170 | 220 | 610 | – | –
CCCCCNC(=O)Nc1cc(/C=C/C(=O)NO)ccc1OCCN(CC)CC | 830 | 470 | 290 | 870 | 1340 | 88.9 | 186
CCCCCNC(=S)Nc1cc(/C=C/C(=O)NO)ccc1SCCN(CC)CC | – | – | – | – | – | 73.8 | –
CCCNC(=S)Nc1cc(/C=C/C(=O)NO)ccc1OCCN(CC)CC | – | – | – | – | – | 82.9 | 210
CCCNC(=O)Nc1cc(/C=C/C(=O)NO)ccc1SCCN(CC)CC | – | – | – | – | – | 82.7 | 198
CCCNC(=S)Nc1cc(/C=C/C(=O)NO)ccc1SCCN(CC)CC | – | – | – | – | – | 76.2 | –
CCCCNC(=O)Nc1cc(/C=C/C(=O)NO)ccc1SCCN(CC)CC | 1500 | 590 | 430 | 1550 | 1750 | 84.5 | 172
CCCCCNC(=O)Nc1cc(/C=C/C(=O)NO)ccc1SCCN(CC)CC | 990 | 560 | 400 | 940 | 1800 | 84.2 | 206
CCCCNC(=S)Nc1cc(/C=C/C(=O)NO)ccc1SCCN(CC)CC | – | – | – | – | – | 73.9 | –
CCCCCNC(=S)Nc1cc(/C=C/C(=O)NO)ccc1OCCN(CC)CC | 1180 | 720 | 380 | 1080 | 1560 | 90.5 | 216
CCCCCCNC(=O)Nc1cc(/C=C/C(=O)NO)ccc1SCCN(CC)CC | – | – | – | – | – | 79.6 | –
CCCCCCCNC(=S)Nc1cc(/C=C/C(=O)NO)ccc1SCCN(CC)CC | – | – | – | – | – | 62.4 | –
CCCCCCNC(=O)Nc1cc(/C=C/C(=O)NO)ccc1OCCN(CC)CC | – | – | – | – | – | 87.5 | 304
CCCNC(=O)Nc1cc(/C=C/C(=O)NO)ccc1OCCN(CC)CC | – | – | – | – | – | 80 | 234
CCCCCCNC(=S)Nc1cc(/C=C/C(=O)NO)ccc1OCCN(CC)CC | – | – | – | – | – | 87.4 | 187
CCCCCCCNC(=S)Nc1cc(/C=C/C(=O)NO)ccc1OCCN(CC)CC | – | – | – | – | – | 69.8 | –
CCCCCCCNC(=O)Nc1cc(/C=C/C(=O)NO)ccc1OCCN(CC)CC | – | – | – | – | – | 83.6 | 410
CCCCCCNC(=S)Nc1cc(/C=C/C(=O)NO)ccc1SCCN(CC)CC | – | – | – | – | – | 72.2 | –
CCCCNC(=O)Nc1cc(/C=C/C(=O)NO)ccc1OCCN(CC)CC | – | – | – | – | – | 80.7 | –

Reference: ChEMBL document CHEMBL2440014, “Design, synthesis and biological evaluation of di-substituted cinnamic hydroxamic acids bearing urea/thiourea unit as potent histone deacetylase inhibitors” (Bioorg Med Chem Lett, 2013)
